Results on two compounds are retold here after ChEMBL document CHEMBL3880386, “Combination comprising the MEK inhibitor N-{3-[3-cyclopropyl-5-(2-fluoro-4-iodo- phenylamino)-6,8-dimethyl-2,4,7-trioxo-3,4,6,7-tetrahydro-2H-pyrido[4,3-d]pyrimidin-1-yl]phenyl}acetamide and the Akt inhibitor N-{(1S)-2-amino-1-[(3-fluorophenyl)methyl]ethyl}-5-chloro-4-(4-chloro-1- …” (2014).

Assay [1] in a line: Growth inhibition of human NCI-H1792 cells at 1:10 molar ratio of compound in presence of N-{3-[3-cyclopropyl-5-(2-fluoro-4-iodo-phenylamino)-6,8-dimethyl- 2,4,7-trioxo-3,4,6,7-tetrahydro-2H-pyrido[4,3-d]pyrimidin-1-yl]phenyl}acetamide incubated for 72 hrs by Cell-titer-Glo reagent based assay. Type of assay: functional. As to conditions: NCI-H1792, 72 h.
Assay [2] in a line: Growth inhibition of human NCI-H727 cells at 1:10 molar ratio of compound in presence of N-{3-[3-cyclopropyl-5-(2-fluoro-4-iodo-phenylamino)-6,8-dimethyl- 2,4,7-trioxo-3,4,6,7-tetrahydro-2H-pyrido[4,3-d]pyrimidin-1-yl]phenyl}acetamide incubated for 72 hrs by Cell-titer-Glo reagent based assay. In kind it is functional. As to conditions: NCI-H727, 72 h.
The nature of assay [3]: Growth inhibition of human NCI-H23 cells assessed combination index at 1:10 molar ratio of compound in presence of N-{3-[3-cyclopropyl-5-(2-fluoro-4-iodo-phenylamino)-6,8-dimethyl- 2,4,7-trioxo-3,4,6,7-tetrahydro-2H-pyrido[4,3-d]pyrimidin-1-yl]phenyl}acetamide incubated for 72 hrs by Cell-titer-Glo reagent based assay. In kind it is functional.
Assay [4] can be described thus: Growth inhibition of human COR-L23 cells at 1:10 molar ratio of compound in presence of N-{3-[3-cyclopropyl-5-(2-fluoro-4-iodo-phenylamino)-6,8-dimethyl- 2,4,7-trioxo-3,4,6,7-tetrahydro-2H-pyrido[4,3-d]pyrimidin-1-yl]phenyl}acetamide incubated for 72 hrs by Cell-titer-Glo reagent based assay. As to conditions: COR-L23, 72 h. In kind it is functional.
Assay [5] in a line: Growth inhibition of human LS1034 cells assessed combination index at 1:10 molar ratio of compound in presence of N-{3-[3-cyclopropyl-5-(2-fluoro-4-iodo-phenylamino)-6,8-dimethyl- 2,4,7-trioxo-3,4,6,7-tetrahydro-2H-pyrido[4,3-d]pyrimidin-1-yl]phenyl}acetamide incubated for 72 hrs by Cell-titer-Glo reagent based assay. In kind it is functional, LS-1034.
A short description of assay [6]: Growth inhibition of human RKO cells at 1:10 molar ratio of compound in presence of N-{3-[3-cyclopropyl-5-(2-fluoro-4-iodo-phenylamino)-6,8-dimethyl- 2,4,7-trioxo-3,4,6,7-tetrahydro-2H-pyrido[4,3-d]pyrimidin-1-yl]phenyl}acetamide incubated for 72 hrs by Cell-titer-Glo reagent based assay. Type of assay: functional.
Assay [7] can be described thus: Growth inhibition of human Calu6 cells assessed combination index at 1:10 molar ratio of compound in presence of N-{3-[3-cyclopropyl-5-(2-fluoro-4-iodo-phenylamino)-6,8-dimethyl- 2,4,7-trioxo-3,4,6,7-tetrahydro-2H-pyrido[4,3-d]pyrimidin-1-yl]phenyl}acetamide incubated for 72 hrs by Cell-titer-Glo reagent based assay. Type of assay: functional, Calu-6.
Assay [8] in a line: Growth inhibition of human HT-29 cells at 1:10 molar ratio of compound in presence of N-{3-[3-cyclopropyl-5-(2-fluoro-4-iodo-phenylamino)-6,8-dimethyl- 2,4,7-trioxo-3,4,6,7-tetrahydro-2H-pyrido[4,3-d]pyrimidin-1-yl]phenyl}acetamide incubated for 72 hrs by Cell-titer-Glo reagent based assay. Type of assay: functional. As to conditions: HT-29, 72 h.
Assay [9] is described as follows: Growth inhibition of human Calu6 cells at 1:10 molar ratio of compound in presence of N-{3-[3-cyclopropyl-5-(2-fluoro-4-iodo-phenylamino)-6,8-dimethyl- 2,4,7-trioxo-3,4,6,7-tetrahydro-2H-pyrido[4,3-d]pyrimidin-1-yl]phenyl}acetamide incubated for 72 hrs by Cell-titer-Glo reagent based assay. In kind it is functional. The note with it: Calu-6, 72 h.
Assay [10] in a line: Growth inhibition of human SW480 cells at 1:10 molar ratio of compound in presence of N-{3-[3-cyclopropyl-5-(2-fluoro-4-iodo-phenylamino)-6,8-dimethyl- 2,4,7-trioxo-3,4,6,7-tetrahydro-2H-pyrido[4,3-d]pyrimidin-1-yl]phenyl}acetamide incubated for 72 hrs by Cell-titer-Glo reagent based assay. In kind it is functional. As to conditions: SW480, 72 h.
A short description of assay [11]: Growth inhibition of human SW837 cells at 1:10 molar ratio of compound in presence of N-{(1S)-2-amino-1-[(3-fluorophenyl)methyl]ethyl}-5-chloro-4-(4-chloro-1-methyl-1H-pyrazol-5-yl)-2-thiophenecar- boxamide incubated for 72 hrs by Cell-titer-Glo reagent based assay. In kind it is functional. As to conditions: SW837, 72 h.
Assay [12] can be described thus: Growth inhibition of human LS1034 cells assessed combination index at 1:10 molar ratio of compound in presence of N-{(1S)-2-amino-1-[(3-fluorophenyl)methyl]ethyl}-5-chloro-4-(4-chloro-1-methyl-1H-pyrazol-5-yl)-2-thiophenecar- boxamide incubated for 72 hrs by Cell-titer-Glo reagent based assay. Type of assay: functional, LS-1034.
Assay [13] in a line: Growth inhibition of human NCI-H1355 cells assessed combination index at 1:10 molar ratio of compound in presence of N-{(1S)-2-amino-1-[(3-fluorophenyl)methyl]ethyl}-5-chloro-4-(4-chloro-1-methyl-1H-pyrazol-5-yl)-2-thiophenecar- boxamide incubated for 72 hrs by Cell-titer-Glo reagent based assay. In kind it is functional.
The nature of assay [14]: Growth inhibition of human NCI-H727 cells at 1:10 molar ratio of compound in presence of N-{(1S)-2-amino-1-[(3-fluorophenyl)methyl]ethyl}-5-chloro-4-(4-chloro-1-methyl-1H-pyrazol-5-yl)-2-thiophenecar- boxamide incubated for 72 hrs by Cell-titer-Glo reagent based assay. As to conditions: NCI-H727, 72 h. Type of assay: functional.
Assay [15] can be described thus: Growth inhibition of human NCI-H1155 cells at 1:10 molar ratio of compound in presence of N-{(1S)-2-amino-1-[(3-fluorophenyl)methyl]ethyl}-5-chloro-4-(4-chloro-1-methyl-1H-pyrazol-5-yl)-2-thiophenecar- boxamide incubated for 72 hrs by Cell-titer-Glo reagent based assay. Type of assay: functional. As to conditions: NCI-H1155, 72 h.
A short description of assay [16]: Growth inhibition of human HT-29 cells assessed combination index at 1:10 molar ratio of compound in presence of N-{(1S)-2-amino-1-[(3-fluorophenyl)methyl]ethyl}-5-chloro-4-(4-chloro-1-methyl-1H-pyrazol-5-yl)-2-thiophenecar- boxamide incubated for 72 hrs by Cell-titer-Glo reagent based assay. Type of assay: functional.
Assay [17] is described as follows: Growth inhibition of human NCI-H727 cells assessed combination index at 1:10 molar ratio of compound in presence of N-{(1S)-2-amino-1-[(3-fluorophenyl)methyl]ethyl}-5-chloro-4-(4-chloro-1-methyl-1H-pyrazol-5-yl)-2-thiophenecar- boxamide incubated for 72 hrs by Cell-titer-Glo reagent based assay. In kind it is functional.
The nature of assay [18]: Growth inhibition of human MV522 cells at 1:10 molar ratio of compound in presence of N-{(1S)-2-amino-1-[(3-fluorophenyl)methyl]ethyl}-5-chloro-4-(4-chloro-1-methyl-1H-pyrazol-5-yl)-2-thiophenecar- boxamide incubated for 72 hrs by Cell-titer-Glo reagent based assay. Type of assay: functional. The note with it: MV522, 72 h.
Assay [19] is described as follows: Growth inhibition of human HCT8 cells assessed combination index at 1:10 molar ratio of compound in presence of N-{(1S)-2-amino-1-[(3-fluorophenyl)methyl]ethyl}-5-chloro-4-(4-chloro-1-methyl-1H-pyrazol-5-yl)-2-thiophenecar- boxamide incubated for 72 hrs by Cell-titer-Glo reagent based assay. Type of assay: functional, HCT-8.
Assay [20] can be described thus: Growth inhibition of human SW1573 cells at 1:10 molar ratio of compound in presence of N-{(1S)-2-amino-1-[(3-fluorophenyl)methyl]ethyl}-5-chloro-4-(4-chloro-1-methyl-1H-pyrazol-5-yl)-2-thiophenecar- boxamide incubated for 72 hrs by Cell-titer-Glo reagent based assay. Type of assay: functional. The note with it: SW1573, 72 h.

Broadly, the IC50 is the concentration needed to halve the response being measured. As to `Cn1ncc(Cl)c1-c1cc(C(=O)N[C@H](CN)Cc2cccc(F)c2)sc1Cl` [AFURESERTIB], the IC50 amounted to 0.374 µM in assay [1]; 0.019 µM in assay [2]; 0.368 µM in assay [4]; 0.054 µM in assay [6]; 0.015 µM in assay [8]; 0.031 µM in [9]. Further, the IC50 in assay [10] is 0.259 µM. Besides, the CI in assay [3] amounted to 0.76; in assay [5], 0.84; in assay [7], 0.79.
Consider `CC(=O)Nc1cccc(-n2c(=O)n(C3CC3)c(=O)c3c(Nc4ccc(I)cc4F)n(C)c(=O)c(C)c32)c1` [TRAMETINIB], for which the concentration for half-maximal inhibition (IC50) in [11] was 0.025 µM; in assay [14] it was 0.002 µM; in assay [15], 0.01 µM; in [18], 0.001 µM; in assay [20], 0.038 µM. For the same compound, the CI in assay [12] stood at 0.84; in assay [13], 0.57; in assay [16] it was 0.95; in assay [17] it was 1.09; in assay [19], 0.39.
